From US20220356163A1, “SMALL MOLECULE INHIBITORS OF Id PROTEINS” (MEMORIAL SLOAN KETTERING CANCER CENTER, priority 2019, published 2022)

Key:
HUVEC = HUVEC cell branching assay on Matrigel; format: cell-based, human; settings: 0-40 μM, 18-20 hours, p<0.05
Description: HUVEC cell branching assays. For branching assays, 350 μL of Matrigel was loaded into each well of a 24-well plate on ice and incubate the plate for 30 minutes at 37° C. to allow the Matrigel to solidify. 80,000 HUVECs in 0.5 mL of EGM-2 medium with the indicated AGX concentration was plated on the solidified Matrigel. At 18-20 hours of incubation when the tube formation was peaked, media from the well was carefully removed and fixed with 10% buffered formalin for 15 minutes. Each well was washed with DPBS. The morphology of capillary like structures was visualized using an inverted microscope and photographed with a digital camera at 10× magnification. To quantify the tube network, Image J with the Angiogenesis Analyzer plugin (public domain Java-based image-processing program, reference: Carpentier G. ImageJ contribution: Angiogenesis Analyzer. ImageJ News. 2012) was installed and the analysis for the number of nodes, junctions, meshes and total branching length was performed as per the instruction. The statistical data analyses were performed using the Wilcoxon test.

ID1-E47 = molecular target: T1, ID1-E47 (Homo sapiens, UniProt P41134); assay: Immunoprecipitation of endogenous ID1 and E47 in HCT116 cells; format: cell-based; settings: 60 μM, one hour
T1 construct: host or cells: HCT116
Description: Immunoprecipitation. Cells were lysed in NP40 lysis buffer (50 mM Tris-HCl, pH 7.5, 150 mM NaCl, 1 mM EDTA, 1% NP40, 1.5 mM Na3VO4, 50 mM sodium fluoride, 10 mM sodium pyrophosphate, 10 mM P-glycerolphosphate and EDTA free protease inhibitor cocktail (Roche)) or RIPA buffer (50 mM Tris-HCl, pH 7.5, 150 mM NaCl, 1 mM EDTA, 1% NP40, 0.5% Sodium Deoxycholate, 0.1% Sodium dodecyl sulfate, 1.5 mM Na3VO4, 50 mM sodium fluoride, 10 mM sodium pyrophosphate, 10 mM P-glycerolphosphate and EDTA free protease inhibitor cocktail (Roche)). Lysates were cleared by centrifuge at 15,000 rpm for 15 minutes at 4° C. For immunoprecipitation, cell lysates were incubated with primary antibody (FLAG M2 affinity gel, Sigma, F2426; ID1 (C-20), Santa Cruz, sc-488; E2A (N-649), Santa Cruz, sc-763) and protein G/A beads (Santa Cruz, sc-2003) at 4° C. overnight. Beads were washed with lysis buffer four times and eluted in 2×SDS sample buffer. Protein samples were separated by SDS-PAGE and transferred to a polyvinylidene fluoride (PVDF) membrane. Membranes were blocked in TBS containing 5% non-fat milk and 0.1% Tween20, and probed with primary antibodies. […]

MDA-MB-361 = assay: MTT assay, MDA-MB-361; format: cell-based; settings: MDA-MB-361, HER-2 +ve cell line, 24 hours
Source text: The 4T1 murine mammary tumor cell line and nine breast cancer cell lines representing the major breast cancer subtypes (ER+, HER2+, and TNBC) including MDA-MB-157, MDA-MB-436, MDA-MB-231, MDA-MB-453, MDA-MB-361, BT-474, SK-BR-3, MCF-7 and T47-D will be grown in RPMI or DMEM (Dulbecco's Modified Eagle Medium) media supplemented with 10% FBS (fetal bovine serum), 1% penicillin-streptomycin and 1% L-Glutamine. Patient derived xenograft cell lines BR7, BR11, and IBT will be established directly from breast cancer bone metastases specimens surgically resected from patients with informed consent. BR7 and BR11 specimens will be obtained from ER positive (HER2 negative and PR negative) metastatic breast cancer patients, while the IBT specimen will be obtained from a metastatic, triple negative breast cancer patient. Fresh tumor tissues will be quickly washed with ice cold PBS and minced into about 1-3 mm pieces in MEM medium (without FBS) using sterile razor blades. […] The cells will be treated with either 100 μM DMSO, AGX51, or a compound of the present technology such as AGX-A. The cell morphology and growth will be monitored daily for 1 week by microscopy for changes in morphology or cell death. […] Absorbance will then measured at 570 nm using a plate reader (Synergy 2, BioTek). […]

T1 sequence (P41134 whole entry): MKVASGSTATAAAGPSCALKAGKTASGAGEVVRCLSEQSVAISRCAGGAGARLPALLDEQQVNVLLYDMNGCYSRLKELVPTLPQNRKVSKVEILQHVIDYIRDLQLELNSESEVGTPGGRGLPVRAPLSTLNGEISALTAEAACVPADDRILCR

CCC(=O)N(CCC(c1ccc2c(c1)OCO2)c1ccccc1OC)Cc1ccccc1 (racemic) [AGX51, N-(3-(benzo[d][1,3]dioxol-5-yl)-3-(2-methoxyphenyl)propyl)-N-benzylpropionamide]
vascular branching (nodes, junctions, meshes, branch length) (HUVEC): significantly impaired in a dose-dependent manner
co-precipitated ID1/E47 proteins (ID1-E47): markedly reduced the levels of the co-precipitated proteins
percentage at 60 μM (IC50 NA) (MDA-MB-361): NA (60 μM = 53%)
